According to patent US8716237B2, “Methods for the treatment or prevention of hemorrhagic conditions” (University of Rochester, priority 2007, dated 2014):

Experiments:
Cyld−/− mice = assay: Survival of Cyld−/− mice inoculated with S. pneumoniae after pretreatment; type: in vivo, mouse; conditions: SB203580 10 mg/kg intraperitoneally 2 hours before S. pneumoniae inoculation
Description: For S. pneumoniae-induced lethal infections in wild type, Cyld^−/−, Mkk3^−/−, and PAI-1^−/− mice, anaesthetized mice were intratracheally inoculated with live S. pneumoniae, S. pneumoniae wild type or pneumolysin mutant lysate, or pneumolysin (“PLY”), at a concentration of 5×10^7CFU per mouse for live bacteria and bacterial lysate and 200 ng/mouse for PLY in all experiments unless otherwise indicated, and saline was inoculated as control. The mice were monitored for lethality every 2 hours for the first 12 hours and every 12 hours for 5 days thereafter. To assess the effect of perturbing p38 MAPK signaling on S. pneumoniae-induced lethality in Cyld^−/− mice, Cyld^−/− mice were pretreated with the p38 inhibitor SB203580 (10 mg/kg, intraperitoneally in Cyld^−/− mice) 2 hours before S. pneumoniae inoculation, and mice were then intratracheally inoculated with S. pneumoniae. To determine the effect of administration of exogenous PAI-1 on S. pneumoniae-induced lethality, mice were intratracheally administered with mouse rPAI-1 (12.5 μg/mouse) or saline as control, followed by S. pneumoniae and PLY inoculation 1 day after PAI-1 administration. For PAI-1 neutralization in Cyld^−/− mice, Cyld^−/− mice were intraperitoneally injected with α-PAI-1 mAb (25 μg/mouse for histological analysis and 50 μg/mouse for lethality) 2 hours before S. pneumoniae inoculation. Mouse IgG was used as control. […] Lung tissues were then subjected to histological analysis and total mRNA and protein extraction. In all Examples, saline was used as a control unless otherwise specified.
To assess the effect of perturbing NF-κB signaling on S.p.-induced lethality in Cyld^−/− mice, Cyld^−/− mice were pretreated with the IKK inhibitor Wedelolactone (10 mg/kg, intraperitoneally) 2 hours before S.p. inoculation, and mice were then intratracheally inoculated with S.p.
Differences in survival between wild-type, Cyld-deficient (“Cyld^−/−”), Mkk3-deficient (“Mkk3^−/−”), and PAI/−/−deficient (“PAI-1^−/−”) mice after saline, S. pneumoniae, S. pneumoniae lysate, and/or pneumolysin inoculation with or without SB203580, rPAI-1, or α-PAI-1 mAb were determined by Kaplan-Meier analysis. All tests were performed using SPSS14.0 software (SPSS Inc.). All in vivo survival rate data were evaluated by Log Lank test. All other in vivo and in vitro data were evaluated by Student t-test. Statistical significance was accepted at a value of p<0.05.

PAI-1 = PAI-1 mRNA expression in A549 cells (Q-PCR); type: cell-based, human; conditions: SB203580 pretreatment (1 μM, 2 hours)
Description: Cells were cultured on 12-well plates and transfected with various expression plasmids, as described in Examples 1-15 and the Brief Description of the Drawings. All transient transfections were carried out in triplicate using TransIT-LT1 reagent (Minis) following the manufacturer's instructions. […] Transfected cells were pretreated with or without chemical inhibitors including SB203580 (1 μM) for 2 hours. S.p. or pneumolysin was then added to the transfected cells 42 hours after transfection. After 5 hours, the cells were harvested for either RNA extraction and real-time quantitative PCR analysis as described in the Examples or luciferase assay. […]
Total RNA was isolated with TRIzol reagent (Invitrogen) by following the manufacturer's instructions. Real-Time Quantitative RT-PCR analysis of PAI-1 and CYLD were performed as described in Jono et al., “NF-κB Is Essential for Induction of CYLD, the Negative Regulator of NF-κB: Evidence for a Novel Inducible Autoregulatory Feedback Pathway,” J. Biol. Chem. 279:36171-4 (2004), which is hereby incorporated by reference in its entirety. […] Relative quantity of PAI-1 mRNA was obtained using comparative CT Method and was normalized by Cyclophilin and GAPDH as an endogenous control for human and mouse, respectively (Applied Biosystems).

SMILES: C[S+]([O-])c1ccc(-c2nc(-c3ccncc3)c(-c3ccc(F)cc3)[nH]2)cc1 (stereo not shown) [SB203580]
- inoculated mice died within 48 hours (Cyld−/− mice): approximately 80%
- survival (Cyld−/− mice): 20%
- time after inoculation at which mice started to die (Cyld−/− mice): 12 h
- S. pneumoniae-induced PAI-1 expression (PAI-1): greatly reduced S. pneumoniae-induced PAI-1 expression
